In data set [1] the test system is KK leukemic cell line. Put plainly: MTT assay. It counts as cell-based, human. To be noted: KK, 48 h, read-out: MTT50. As to the method: (§1) All cell lines were assayed as asynchronously growing cells. Leukemic cell lines, OCI-AML-2, OCI-AML-3 (referred to hereafter as AML-2 and AML-3, respectively), NB-4, KK, B1, G2, and W1 were cultured in alpha-minimal essential medium (α-MEM) (Princess Margaret Hospital Media Services) supplemented with 10% fetal bovine serum (FBS) (Sigma, St. Louis, Mo.). Non-transformed, diploid fibroblast lines WI38 and IMR90, were cultured in α-MEM and MEM F-15, respectively supplemented with 10% FBS. Media for IMR90 cells was also supplemented with 1.5 g/L bicarbonate and 1 mM pyruvate. Breast tumour cell lines, MDA-231, SK-BR-3, MCF-7, ZR-751, and melanoma tumour cell lines, WM9, WM983, WM793, 1232, were grown in α-MEM supplemented with 10% fetal bovine serum. Prostate tumour cell lines, DU145 and PC-3, were grown in RPMI 1640 media supplemented with 10% FBS. All cell lines were cultured in the presence of penicillin/streptomycin. Mononucleated cells were isolated from normal bone marrow using Ficoll hypaque and then T-cell depleted. T-cell depletion was performed by incubating the mononucleated bone marrow cells in α-MEM at a concentration of 2×10^7 cells/mL with 10% absor FBS and 10% (v/v) sheep red blood cells for 4 to 16 h. Absor FBS was prepared beforehand by heating FBS at 56° C. for 1 h, incubating with sheep red blood cells at 0.5% (v/v) for 1 h and then filtering the FBS with a […]. The T-cell depleted, mononucleated cells were recovered using Ficoll hypaque and were maintained in α-MEM supplemented with 20% FBS and 10% 5637 ? nditioned media. 5637 conditioned media ? s previously harvested from confluent 5637 cells after a 3 day incubation. Normal bone marrow from bone marrow transplant donor was collected following informed consent according to institutional guidelines.
(§2) Approximately 20 mg of each compound was dissolved in 5 mL of ACS grade acetone (Sigma) using a 5 mL volumetric flask. Stock solutions of the compounds were stored in the dark at −20° C. Compounds were diluted prior to each experiment.
(§3) Adherent cells were seeded at 67×10^3 cells/mL in a 96 well plate (Falcon, Mississauga, Ontario) the day prior to exposure to compound. Suspension cells were seeded at 27×10^4 cells/mL in a 96 well plate the day of exposure to compound. Mononucleated, T-cell depleted normal bone marrow cells were seeded at 67×10^4 cells/mL in a 96 well plate the day of exposure to compound. Compounds and solvent control were added to cells and assayed in triplicate or sextuplet. Following 48 h of incubation at 37° C. with 5% CO2, 40 μL of a 5 mg/mL solution of 3-[4,5-dimethylthiazol-2-yl]-2,5-diphenyltetrazolium bromide (MTT) substrate (Sigma) in Dulbecco's phosphate-buffered saline (D-PBS) was added. After 4 h of incubation at 37° C. with 5% CO2, the resulting violet formazan precipitate was solubilized by the addition of 80 μL of a 0.01 M HCI, 10% sodium dodecyl sulfate (SDS; Sigma) solution overnight at 37° C. with 5% CO2. The plates were then analyzed using the BioRad Benchmark Microplate Reader (BioRad Laboratories, Hercules, Calif.) at 570 nm to determine the optical density of the samples. MTT data was analyzed using Prism 3.0 (GraphPad Software, Inc., San Diego, Calif.) by the Chou-Talalay method. MTT graphs shown are a representative experiment.
(§4) Adherent cells were seeded at 67×10^3 cells/mL in a 96 well plate (Falcon, Mississauga, Ontario) the day prior to exposure to compound. Suspension cells were seeded at 27×10^4 cells/mL in a 96 well plate the day of exposure to compound. Mononucleated, T-cell depleted normal bone marrow cells were seeded at 67×10^4 cells/mL in a 96 well plate the day of exposure to compound. Compounds and solvent control were added to cells and assayed in triplicate or sextuplet. […]

In data set [2] the test system is AML-3 leukemic cell line. Briefly: MTT assay. Format: cell-based, human. The protocol: as §1, §2, §3, §4
Data set [3] concerns NB-4 leukemic cell line. Put plainly: MTT assay. It counts as cell-based, human. To be noted: NB-4, 48 h, read-out: MTT50. As to the method: as §1, §2, §3, §4
Data set [4] deals with WI38 non-transformed diploid fibroblasts. Put plainly: MTT assay. It counts as cell-based, human. The settings on record: for IC50: WI38 (normal), 48 h, read-out: MTT50. As to the method:
as §1, §2, §3, §4

The subject of data set [5] is B1 leukemic cell line. Put plainly: MTT assay. Format: cell-based, human. The settings on record: B1, 48 h, read-out: MTT50. As to the method:
as §1, §2, §3, §4

Data set [6] relates to Normal bone marrow (mononucleated, T-cell depleted). Briefly: MTT assay. Format: cell-based. The settings on record: Normal bone marrow, 48 h, read-out: MTT50. The protocol: as §1, §2, §3, §4
The subject of data set [7] is Aspergillus flavus. Briefly: Antifungal paper disk test, diameter of clear zone. Format: cell-based. The settings on record: for zone of inhibition at 100 µg/disc: 100 μg/disk, read-out: Diameter (mm) of clear Zone A. flavus. The protocol: (§5) Sulfur compounds were tested for antifungal activity against pure cultures of Aspergillus niger and Aspergillus flavus supplied by Ward's Natural Science Ltd (St. Catharines, Ontario, Canada). They were maintained on Sabouraud Dextrose Agar.
(§6) For the test, 6 agar plugs (5 mm diameter) were cut from a 5-8 day old colony and homogenized in distilled, sterilized water (2 ml). A portion of this suspension (0.5 ml) was transferred aseptically to a Petri plate with Sabouraud Dextrose Agar (15 ml) and spread evenly over the entire surface. […] Each test compound was applied to the disks as a solution (50 mg compound/10 ml acetone). Control disks were treated with neat acetone (20 μl). Test plates with fungal homogenates and disks were incubated at 18-20° C. for 2 days. For each test four replicate plates were used. The diameter of the clear zone surrounding the disk was taken as the indicator of antifungal activity.

The test system of data set [8] is Aspergillus niger. Briefly: Antifungal paper disk test, diameter of clear zone. The settings on record: for zone of inhibition at 100 µg/disc: 100 μg/disk, read-out: Diameter (mm) of clear Zone A. niger. It counts as cell-based. As to the method:
as §5, §6

In data set [9] the test system is G2 leukemic cell line. Briefly: MTT assay. Format: cell-based, human. To be noted: 48 h, read-out: MTT50. The protocol: as §1, §2, §3, §4
Data set [10] has as its system W1 leukemic cell line. Briefly: MTT assay. It counts as cell-based, human. To be noted: 48 h, read-out: MTT50. The protocol: as §1, §2, §3, §4
The test system of data set [11] is Aspergillus flavus. Briefly: Antifungal paper disk test, diameter of clear zone. Format: cell-based. To be noted: 0.25 μg/disk; Appl'n Solvent DMSO.
Data set [12] relates to Aspergillus niger. Briefly: Antifungal paper disk test, diameter of clear zone. It counts as cell-based. To be noted: 0.25 μg/disk; Appl'n Solvent DMSO.
Data set [13] concerns Aspergillus niger and Aspergillus flavus. Put plainly: Antifungal activity. Format: cell-based. To be noted: in words; dose not given. As to the method: as §5
For the test, 6 agar plugs (5 mm diameter) were cut from a 5-8 day old colony and homogenized in distilled, sterilized water (2 ml). A portion of this suspension (0.5 ml) was transferred aseptically to a Petri plate with Sabouraud Dextrose Agar (15 ml) and spread evenly over the entire surface. Each plate was supplied with four evenly spaced paper disks (7 mm, Whatman Number 1 filter paper) containing the test compound (0, 25, 50 and 100 μg respectively). Each test compound was applied to the disks as a solution (50 mg compound/10 ml acetone). Control disks were treated with neat acetone (20 μl). Test plates with fungal homogenates and disks were incubated at 18-20° C. for 2 days. For each test four replicate plates were used. The diameter of the clear zone surrounding the disk was taken as the indicator of antifungal activity.

The subject of data set [14] is KK leukemic cell line. Briefly: Fixed propidium iodide staining, flow cytometry. It counts as cell-based, human. To be noted: dose 129.6 uM (ug/mL), 48 h. The protocol:
(§7) Adherent cell lines were plated at 35×10^4 cells/60 cm^2 dish the day before exposure to compound. Suspension cells were seeded at 25×10^4 cells/mL in a 6 well dish (Falcon) the day of exposure to compound. Mononucleated, T-cell depleted normal bone marrow cells were seeded at 50×10^4 cells/mL in a 6 well dish the day of exposure to compound. Cells were exposed to solvent control or approximate MTT50 and MTT30 concentrations of the compound. After 48 h of exposure to the compound, cells were harvested, fixed in 80% ethanol for 1 h on ice and labeled with 50 μg/mL propidium iodide (Sigma). Approximately 10^6 cells were analyzed using a XL-MCL flow cytometer (Coulter Corporation, Miami, Fla.) and a FACScalibar cytometer (Becton Dickinson, San Jose, Calif.). Profiles shown are a representative.
as §7, with “cm2” for “cm^2”, “concentrations.” for “concentrations of the compound.”, “representative. Cell viability counts and Pi staining were performed as previously described (Dimitroulakos, J, Nohynek, D, Backway, K L, Hedley, D W, Yeger, H, Freedman, M H, Minden, M D and Penn, L Z: Increased sensitivity of acute myeloid leukemias to lovastatin-induced apoptosis: A potential therapeutic approach. Blood 93: 1308-18, 1999).” for “representative.”

Data set [15] relates to AML-3 leukemic cell line. Briefly: Fixed propidium iodide staining, flow cytometry. The settings on record: dose 129.6 uM (ug/mL), 48 h. It counts as cell-based, human. The protocol:
as §7
as §7, with “cm2” for “cm^2”, “concentrations.” for “concentrations of the compound.”, “representative. Cell viability counts and Pi staining were performed as previously described (Dimitroulakos, J, Nohynek, D, Backway, K L, Hedley, D W, Yeger, H, Freedman, M H, Minden, M D and Penn, L Z: Increased sensitivity of acute myeloid leukemias to lovastatin-induced apoptosis: A potential therapeutic approach. Blood 93: 1308-18, 1999).” for “representative.”

Data set [16] relates to Aspergillus niger and Aspergillus flavus. Briefly: Antifungal activity. It counts as cell-based. To be noted: in words; 10 μg/disk.
Where [17] appears, read: Homo sapiens, AML3, 48 h, AML-3, read-out: MTT50.
Setting [18] is: 0.25 μg/disk, Appl'n Solvent Acetone.

Values joined by “and” are separate entries in the source; they are usually repeats but may differ in a detail not shown here. Equal values may be shown once. Read-outs that look alike come from different tables or passages of the source. Bounds are passed on as bounds.

The values that follow come from patent US20030220524A1, “Sulfur containing compounds” (priority 2000, published 2003).

`COC(=O)CSSCC(=O)OC` [O, dimethyl 3,4-dithiaadipate]: the IC50 came out at 96.9 µM in data set [1] (Homo sapiens); 44.1 µM in data set [2] (AML-3, 48 h, read-out: MTT50); 55.8 µM in data set [2] (setting [17]); 62.9 µM in [3] (Homo sapiens); 73.9 µM in data set [4] (Homo sapiens, WI-38, 48 h); 57.4 µM in [5] (Homo sapiens). Besides, in data set [6] (T-cell), the IC50 is more than 100 µM. In addition, the zone of inhibition at 100 µg/disc in data set [7] (Aspergillus flavus, acetone) is 0 mm; in [8] (Aspergillus niger, acetone), 0 mm.
`CCCCCSSCS(C)(=O)=O` [K]: the IC50 in [9] is 6.61 µM and 5.8 µM; in [1] it was 6.6 µM; in data set [2] (AML-3, 48 h, read-out: MTT50), 4.6 µM; in [3] it was 6.36 µM and 7.8 µM; in data set [4], 19 µM; in data set [5], 6.07 µM. Further, in data set [6], the IC50 turned out to be 22 µM.
In the case of `CS(=O)(=O)Sc1ccccc1` [L, Phenyl Methanethiosulfonate], the IC50 in [9] came out at 3.8 µM; in data set [1], 6.3 µM; in data set [2] (AML-3, 48 h, read-out: MTT50), 7.46 µM; in data set [5] it was 6.34 µM; in data set [10], 7.26 µM; in data set [6], 44.2 µM. Besides, the “Diameter (mm) of clear Zone A. flavus” value in data set [7] (25 μg/disk, acetone) is 3.7 mm. The “Diameter (mm) of clear Zone A. niger” value in data set [8] (25 μg/disk, acetone) is recorded as 0 mm.
In the case of `C[C@@H]1[C@H](O)[C@@H](C)/C=C/C=C/C=C/C=C/C=C/C=C/C=C/[C@H](O[C@@H]2O[C@H](C)[C@@H](O)[C@H](N)[C@@H]2O)C[C@@H]2O[C@](O)(C[C@@H](O)C[C@@H](O)[C@H](O)CC[C@@H](O)C[C@@H](O)CC(=O)O[C@H]1C)C[C@H](O)[C@H]2C(=O)O` [Amphotericin B, reference compound], in data set [11], the “Diameter (mm) of clear Zone A. flavus” value was determined as 4.1 mm. In addition, in data set [12], the “Diameter (mm) of clear Zone A. niger” value was determined as 4.2 mm. In addition, in data set [13], the Antifungal activity result was “most potent of the 3 commercial antifungals tested”.
For `CCC(=O)OCSSCOC(=O)CC` [(C2H5C(O)OCH2S)2, 2,3-dithiabutane-1,4-dipropionate], the “Diameter (mm) of clear Zone A. flavus” value worked out at 6.1 mm in data set [11] and 6.7 mm in data set [7] (setting [18]). The entries for the “Diameter (mm) of clear Zone A. niger” value in data set [8] (setting [18]) and in [12] were 3.6 mm and 8.0 mm, respectively.
Compound `CSSCCCS(C)(=O)=O` [CH3SO2CH2CH2CH2SSCH3, 2,3,7-trithiaoctane 7,7-dioxide] gave a melting point of 34.8 to 35.3 °C. In addition, in data set [7] (Aspergillus flavus, acetone), the zone of inhibition at 100 µg/disc amounted to 0 mm. In addition, the zone of inhibition at 100 µg/disc in data set [8] (Aspergillus niger, acetone) was found to be 0 mm.
As for `CSCSCSC` [J, 2,4,6-trithiaheptane], the IC50 is more than 162 µM in data set [1] (Homo sapiens); more than 162 µM in data set [2] (setting [17]); more than 162 µM in data set [4] (Homo sapiens, WI-38, 48 h); more than 162 µM in data set [6] (T-cell). For the same compound, the “Viability of non-transformed human WI38 fibroblasts following exposure” value in [4] (in words) was “not affected”. Further, the zone of inhibition at 100 µg/disc in data set [7] (Aspergillus flavus, acetone) came out at 0 mm; in [8] (Aspergillus niger, acetone) it was 0 mm. Besides, the “% pre-G1 (Fixed PI)” value in [14] came out at 2.6%; in data set [15], 0.2%. In addition, in data set [13], the Antifungal activity entry is recorded as “do not possess antiproliferative activity on either fungal or mammalian cells”.
With `CSSc1ccccc1[N+](=O)[O-]` [o-O2N(C6H4)SSCH3, methyl o-nitrophenyl disulphide], the “Antifungal activity / fungitoxicity” value in data set [16] is recorded as “pronounced toxicity”. Moreover, the zone of inhibition at 10 µg/disc turned out to be 1.9 mm in data set [7] (Aspergillus flavus, 10 μg/disk, acetone) and 2.8 mm in [8] (Aspergillus niger, 10 μg/disk, acetone).
